Results taken from paper PMC8957246, “Synthesis and diverse biological activity profile of triethylammonium isatin-3-hydrazones” (ADMET & DMPK, 2022).
≈ marks a conversion by molar mass, not a printed value. Structures can show the parent of a compound that is named as a salt. Marks after values point to notes of the source that are not given here.

Legend:
[1] = tested on: platelets (ADP-induced aggregation); experiment: Platelet aggregation (Born method), ADP-induced; format: cell-based; details: Homo sapiens, ADP 20 μg/mL, final concentration 2×10^–3 mol/L, median (25-75 percentiles), read-out: Platelets aggregation, % of control, ADP
Description: (§1) The in vitro experiments were performed using the blood of healthy male donors aged 18-24 years (total 54 donors). The study was approved by the Ethics Committee of Federal State Budgetary Educational Institution of Higher Education at the Bashkir State Medical University of the Ministry of Health of Russian Federation (No.2 dated 17.10.2012). Informed consent was obtained from all participants before blood sampling. The blood was collected from the cubital vein using the system of vacuum blood collection BD Vacutainer® (Becton, Dickinson and Company, USA). A 3.8 % sodium citrate solution in a 9:1 ratio was used as a venous blood stabiliser. The study of the effect on platelet aggregation was performed using the Born method using the aggregometer «AT-02» (SPC Medtech, Russia). The assessment of antiplatelet activity of the studied compounds and reference preparations was started with the final concentration of 2×10^–3 mol/L. Adenosine diphosphate (ADP; 20 μg/mL) and collagen (5 mg/mL) manufactured by Tehnologia-Standart Company, Russia, were used as inducers of aggregation. The study on the anticoagulant activity was performed by standard recognised clotting tests using the optical two-channel automatic analyser of blood coagulation Solar CGL 2110 (CJSC SOLAR, Belarus). The following parameters were studied: activated partial thromboplastin time (APTT), prothrombin time (PT) and fibrinogen concentrations according to the Clauss method. The determination of anticoagulant activity of the studied compounds and reference preparation was performed in a concentration of 5×10^–4 g/mL using the reagents manufactured by Tehnologia-Standart Company (Barnaul, Russia). The results of the study were processed using the statistical package Statistica 10.0 (StatSoft Inc, USA). The Shapiro–Wilk’s test was used to check the normality of actual data distribution. The form of distribution of the data obtained differed from the normal one; therefore, non-parametric methods were used for further analysis. The data were presented as medians and 25 and 75 percentiles. Analysis of variance was conducted using Kruskal–Wallis test. A p value of 0.05 was considered statistically significant.

[2] = tested on: platelets (collagen-induced aggregation); experiment: Platelet aggregation (Born method), collagen-induced; format: cell-based; details: Homo sapiens, collagen 5 mg/mL, final concentration 2×10^–3 mol/L, median (25-75 percentiles), read-out: Platelets aggregation, % of control, Collagen
Description: as §1

[3] = tested on: Fusarium oxysporum IBPPM 543; experiment: Fungicidal activity, radial growth inhibition, F. oxysporum; format: cell-based; details: for Inhibition value, I (%): C 10 μg/mL
Description: (§2) Plant pathogenic bacterial strains Micrococcus luteus B-109, Pectobacterium atrosepticum 1043, Pectobacterium carotovorum subsp. carotovorum MI, Pseudomonas fluorescens EL-2.1, and Xanthomonas campestris B-610 and fungal strain Fusarium oxysporum IBPPM 543 were obtained from the specialized scientific culture collection of IBPPM RAS (WFCC no. 975, WDCM no. 1021) (CM IBPPM). Pathogenic fungus Phytophthora cactorum VKM F-985 provided by the All-Russian Collection of Microorganisms (VKM) and deposited at A.E. Favorsky Irkutsk Institute of Chemistry, SB RAS, was also used as test organism. Bacteria M. luteus, P. carotovorum subsp. carotovorum, P. atrosepticum, and Ps. fluorescens were grown in meat-peptone medium (BP), and X. campestris was grown in the medium with glucose, yeast extract, and calcium carbonate (GYCa). Solid media contained Bacto agar (18 g/L); pH was adjusted to 7.2-7.4. All bacterial cultures were grown at 28°C. The mycelial cultures of F. oxysporum and P. cactorum were grown on a glucose-peptone-yeast (GPY) nutrient medium at 27 °C. For inoculum preparation, both fungal strains were initially grown on the agar GPY in Petri dishes and then transferred into the seed medium by punching out 5 mm of the agar plate culture with a self-designed cutter.
(§3) For the fungicidal activity analysis, radial growth (colony diameters) of the fungi on a solid medium in the absence and in the presence of the compounds 3a,c-g solutions at various concentrations were compared. The method consisted of the following: sterile, melted and then cooled to about 60°C GPY agar medium (20.0 ml) was mixed with the precisely measured volumes of the solutions under question, and poured into a sterile Petri dish (90 mm i.d.). After solidification of GPY agar, the media were inoculated by the fungus using 10-day-old cultures of F. oxysporum or P. cactorum. The inoculation was done by transferring a 5-mm (i.d.) GPY-agar block covered with mycelium to the center of the Petri dish followed by incubation in a thermostat at 27°C. The fungicidal effect was scored by the size of mycelium colony on a Petri dish compared to the control without fungicidal admixtures to GPY agar. Each treatment was performed in at least four replicates in two independent experiments. The observation period ended when the control Petri dish was filled with mycelium (usually after 12 days). The inhibition of the phytopathogen colony growth by the compounds 3a,c-g or fludioxonil solutions was calculated as a percentage by which the mycelium radial propagation was decreased compared to the unaffected control, the latter was taken as 100 % of growth (or zero percent of inhibition). The EC50 value was calculated as the compound concentration at which the radial growth of the fungus colony was decreased by 50 % relative to the non-fungicidal control, according to the formula EC50 = 50C/I based on the approach developed e.g., in [34, 35].
(§4) The solutions of tested compounds were prepared with a concentration of 2 mmol/l (stock solution). For comparison, test compounds were also commonly applied disinfecting agents and antibiotics.

[4] = tested on: Phytophthora cactorum VKM F-985; experiment: Fungicidal activity, radial growth inhibition, P. cactorum; format: cell-based; details: for Inhibition value, I (%): C 10 μg/mL
Description: as §2, §3, §4

[5] = tested on: Pectobacterium carotovorum subsp. carotovorum MI; experiment: Bactericidal activity, agar diffusion, P. carotovorum; format: cell-based
Description: as §2
(§5) Antibacterial and antifungal activities of the compounds were explored using the agar diffusion method and the technique of a phytopathogen radial growth inhibition. Method of diffusion in agar (measuring the diameter of growth inhibition zones) was used for determining the bactericidal activity. The 6-mm wells were made in ager medium (GYCa for Xanthomonas campestris or BP for other bacteria). Bacterial suspensions were distributed over the agar surface, and the tested compound's solution (150 μl) was added to each well. The width of growth inhibition zones around the wells was determined after incubation for 36-40 h.
as §4

[6] = tested on: Pectobacterium atrosepticum 1043; experiment: Bactericidal activity, agar diffusion, P. atrosepticum; format: cell-based
Description: as §2, §5, §4

[7] = tested on: Micrococcus luteus B-109; experiment: Bactericidal activity, agar diffusion, M. luteus; format: cell-based
Description: as §2, §5, §4

[8] = tested on: Pseudomonas fluorescens EL-2.1; experiment: Bactericidal activity, agar diffusion, Ps. fluorescens; format: cell-based
Description: as §2, §5, §4

[9] = tested on: Xanthomonas campestris B-610; experiment: Bactericidal activity, agar diffusion, X. campestris; format: cell-based
Description: as §2, §5, §4

[10] = tested on: Enterococcus faecalis ATCC 29212; experiment: Antimicrobial activity, serial dilution (MIC/MBC), Ef; format: cell-based; details: ATCC29212
Description: (§6) The antimicrobial activity of the test compounds was determined by the serial dilution technique in Muller Hinton Broth 2 and in Sabouradu broth for fungi. The cultures used for testing included Gram-positive bacteria: Staphylococcus aureus ATCC 6538P FDA 209P, Bacillus cereus ATCC 10702 NCTC 8035, Enterococcus faecalis ATCC 29212; Gram-negative bacteria: Escherichia coli ATCC 25922, Pseudomonas aeruginosa ATCC 9027, and fungi: Trichophyton mentagrophytes var. gypseum 1773, and Candida albicans ATCC 10231; methicillin-resistant strains of S. aureus (MRSA) was obtained from hospital patients with chronic tonsillitis in the Republican Clinical Hospital (Kazan, Russia). The bacterial load was 3.0 × 10^5 cfu/ml. The fungi load was 2.0 × 10^3 cfu/ml. The results were recorded every 24 h for 5-7 days. Cultures were incubated at 37 °C. The experiment was repeated three times. […] The minimum inhibitory concentration (MIC) was defined as the minimum concentration of a compound that inhibits the growth of the corresponding test microorganism. The growth of bacteria, as well as the absence of the growth due to the bacteriostatic action of compounds, were recorded.
(§7) Synthesized compounds were further evaluated for antimicrobial activity against test microorganisms: Staphylococcus aureus ATCC 209p (Sa), Bacillus cereus ATCC 8035 (Bc), Escherichia coli CDC F-50 (Ec), Enterococcus faecalis (Ef), Pseudomonas aeruginosa ATCC 9027, Aspergillus niger BKMF-1119, Trichophyton mentagrophytes var. gypseum 1773, and Candida albicans 855-653 including methicillin-resistant strains of S. aureus (MRSA 1 and MRSA 2). The minimum inhibitory (MIC) and minimum bactericidal (MBC) concentrations of ammonium salts were determined against these pathogens (Table 1). Due to the lack of activity of compounds 3a-g against Gram-negative bacterial strains and some fungi, the corresponding data are not shown.

[11] = tested on: methicillin-resistant strains of S. aureus (MRSA-2); experiment: Antimicrobial activity, serial dilution (MIC/MBC), MRSA-2; format: cell-based; details: Staphylococcus aureus
Description: as §6, §7

[12] = tested on: Bacillus cereus ATCC 10702 NCTC 8035; experiment: Antimicrobial activity, serial dilution (MIC/MBC), Bc; format: cell-based; details: Bacillus cereus
Description: as §6, §7

[13] = tested on: methicillin-resistant strains of S. aureus (MRSA-1); experiment: Antimicrobial activity, serial dilution (MIC/MBC), MRSA-1; format: cell-based; details: Staphylococcus aureus
Description: as §6, §7

[14] = tested on: Staphylococcus aureus ATCC 6538P FDA 209P; experiment: Antimicrobial activity, serial dilution (MIC/MBC), Sa; format: cell-based; details: Staphylococcus aureus
Description: as §6, §7

[15] = tested on: activated partial thromboplastin time (intrinsic coagulation pathway); experiment: Anticoagulant activity, clotting test APTT; design: species or system human; details: concentration 5×10^–4 g/mL; median (25-75 percentiles)
Description: as §1

CC[N+](CC)(CC)CC(=O)N/N=C1\C(=O)N(Cc2cc(C(C)(C)C)c(O)c(C(C)(C)C)c2)c2ccccc21 (as salt: bromide) [Compound 3a, 2-(2-(1-(3,5-Di-tert-butyl-4-hydroxybenzyl)-2-oxoindolin-3-ylidene)hydrazinyl)-N,N,N-triethyl-2-oxoethanammonium bromide]
melting point: 212 °C

CC(=O)Oc1ccccc1C(=O)O [Acetylsalicylic acid, reference compound]
inhibition at 2000 µM [1]: 13.7%
inhibition at 2000 µM [2]: 14.7%

N#Cc1c[nH]cc1-c1cccc2c1OC(F)(F)O2 [Fludioxonil, reference compound]
Inhibition value, I (%) ([3]; age of the fungus 3 days): 38%
Inhibition value, I (%) ([3]; age of the fungus 5 days): 23%
Inhibition value, I (%) ([3]; age of the fungus 7 days): 6%
Inhibition value, I (%) ([3]; age of the fungus 9 days): 4%
EC50 ([3]; Fusarium oxysporum, IBPPM543, 168 h, read-out: EC50, μg/mL at day 7): 83.3 µg/mL (≈ 336 µM)
Inhibition value, I (%) ([4]; age of the fungus 3 days): 46%
Inhibition value, I (%) ([4]; age of the fungus 5 days): 38%
Inhibition value, I (%) ([4]; age of the fungus 7 days): 18%
Inhibition value, I (%) ([4]; age of the fungus 9 days): 12%
Inhibition value, I (%) ([4]; age of the fungus 12 days): 9%
EC50 ([4]; Phytophthora cactorum, 168 h, read-out: EC50, μg/mL at day 7): 27.8 µg/mL (≈ 112 µM)

CC[N+](CC)(CC)CC(=O)N/N=C1\C(=O)N(Cc2cc(C(C)(C)C)c(O)c(C(C)(C)C)c2)c2ccc([N+](=O)[O-])cc21 (as salt: bromide) [Compound 3f, 2-(2-(1-(3,5-Di-tert-butyl-4-hydroxybenzyl)-5-nitro-2-oxoindolin-3-ylidene)hydrazinyl)-N,N,N-triethyl-2-oxoethanammonium bromide]
melting point: 176 °C

N=C(NCCCCCCNC(=N)NC(=N)Nc1ccc(Cl)cc1)NC(=N)Nc1ccc(Cl)cc1 [Chlorohexidin, reference compound]
width of the inhibition zone ([5]; 500 μg/mL): 5 mm
width of the inhibition zone ([6]; 500 μg/mL): 4 mm
width of the inhibition zone ([7]; 500 μg/mL): 5 mm
width of the inhibition zone ([8]; 500 μg/mL): 4 mm
width of the inhibition zone ([9]; 500 μg/mL): 5 mm

CCn1cc(C(=O)O)c(=O)c2cc(F)c(N3CCNCC3)cc21 [Norfloxacin, reference compound]
zone of inhibition at 500 µg/mL ([5]; Pectobacterium carotovorum, 500 μg/mL, read-out: width of the inhibition zone): 8 mm
MBC [10]: 7.5 ± 0.6 µM (≈ 2.4 µg/mL)
MIC [10]: 7.5 ± 0.5 µM (≈ 2.4 µg/mL)
MIC [11]: 30 ± 2.6 µM (≈ 9.58 µg/mL)
zone of inhibition at 500 µg/mL ([6]; Pectobacterium atrosepticum, 1043, 500 μg/mL, read-out: width of the inhibition zone): 7 mm
MBC [12]: 24.4 ± 2.1 µM (≈ 7.79 µg/mL)
MIC ([12]; read-out: MIC): 24.4 ± 2.1 µM (≈ 7.79 µg/mL)
zone of inhibition at 500 µg/mL ([7]; Micrococcus luteus, B109, 500 μg/mL, read-out: width of the inhibition zone): 7 mm
zone of inhibition at 500 µg/mL ([8]; Pseudomonas fluorescens, EL2.1, 500 μg/mL, read-out: width of the inhibition zone): 8 mm
MIC [13]: 391 ± 30 µM (≈ 125 µg/mL)
zone of inhibition at 500 µg/mL ([9]; Xanthomonas campestris, B610, read-out: width of the inhibition zone): 7 mm
MIC [14]: 7.5 ± 0.5 µM (≈ 2.4 µg/mL)
MBC ([14]; read-out: MBC (converted)): 7.5 ± 0.6 µM (≈ 2.4 µg/mL)

Heparin sodium [reference compound]
APTT, % of control [15]: +20.3 (19.7-21.4) ^** % of control

CCc1cccc2c1N(Cc1cc(C(C)(C)C)c(O)c(C(C)(C)C)c1)C(=O)/C2=N\NC(=O)C[N+](CC)(CC)CC (as salt: bromide) [Compound 3c, 2-(2-(1-(3,5-Di-tert-butyl-4-hydroxybenzyl)-7-ethyl-2-oxoindolin-3-ylidene)hydrazinyl)-N,N,N-triethyl-2-oxoethanammonium bromide]
melting point: 163 °C

CC[N+](CC)(CC)CC(=O)N/N=C1\C(=O)N(Cc2cc(C(C)(C)C)c(O)c(C(C)(C)C)c2)c2cccc(Br)c21 (as salt: bromide) [Compound 3e, 2-(2-(1-(3,5-Di-tert-butyl-4-hydroxybenzyl)-4-bromo-2-oxoindolin-3-ylidene)hydrazinyl)-N,N,N-triethyl-2-oxoethanammonium bromide]
melting point: 194 °C

[Na+].[O-]Cl [sodium hypochlorite, reference compound]
width of the inhibition zone ([5]; 1000 μg/mL): 3 mm
width of the inhibition zone ([6]; 1000 μg/mL): 4 mm
width of the inhibition zone ([7]; 1000 μg/mL): 2.5 mm
width of the inhibition zone ([8]; 1000 μg/mL): 4 mm
width of the inhibition zone ([9]; 1000 μg/mL): 4 mm
